From patent US11202748B2, “Photoprotective compositions containing malassezia-derived compounds and/or chemical analogs thereof” (Versicolor Technologies, LLC, priority 2018, dated 2021)

What was measured:
[1] = biological target: arylhydrocarbon receptor (AhR) (Homo sapiens, UniProt P35869); conditions: expected result
Description: Cultivated cells are rinsed with 5 mL PBS. […] Trypsin is inactivated by adding excess serum-containing media.
Cells are resuspended in seeding media at a proper density.
Compound solutions are transferred into the assay plate using Echo550. The plate is then placed back into the incubator for compound treatment.
Afterward, stock solutions of test compounds, test compositions, and omeprazole positive control are prepared. Compound and compositions solutions are transferred into the assay plate using Echo550. The plate is then placed back into the incubator for compound/composition treatment.

[2] = system: MeWo, WM115 and B16F1 cell lines; conditions: expected result
Description: The cell lines MeWo (ATCC® HTB-65™), WM115 (ATCC® CRL-1675) and B16F1 (ATCC® CRL-6323) are maintained in the following culture media: culture medium for MeWo and B16F1: DMEM supplemented with 10% FBS; culture medium for WM115: RPMI 1640 supplemented with 10% FBS.
Cells are harvested and the cell number determined using a Countess Cell Counter. The cells are diluted with culture medium to the desired density. The final cell density may be, for example, 4,000 cells/well for 6 hr and 24 hr treatment, and 2,000 cells/well for 48 hr and 72 hr treatment. For the Annexin V assay, 384-well clear-bottom plates (Corning 3712) are employed, whereas 384-well solid white-bottom plates (Corning 3570) are used for the Caspase-Glo assays. All plates are covered with a lid and placed at 37° C. and 5% CO2 overnight for cell attachment.
Test compounds are dissolved in DMSO to 30 mM stock. 10-fold dilutions are performed to generate 3 mM and 0.3 mM concentrations. […]
For the Annexin V assay, plates are removed from the incubator and culture media is removed. […] Plates are read using ImageXpress Nano.
For the Caspase-Glo assay, plates are removed from the incubator and equilibrated at room temperature for 15 minutes. […] Plates are incubated at room temperature for 15 minutes and read using EnSpire™ plate reader. Fold induction is calculated according to the following formula: Fold induction=LumSample/LumNC.

[3] = expected result
Description: For the CellTiter-Glo assay, test compounds are prepared in 10 mM DMSO solution. Compounds are serially diluted into 12 concentrations. 40 uL of cells from a 100,000 cell/mL suspension are dispensed into each well of a 384-well plate (Corning 3570). Plates are incubated overnight at 37° C., 5% CO2, and 95% humidity. Test compounds are added, with DMSO as vehicle control. Plates are incubated at 37° C., 5% CO2, and 95% humidity for 6, 24, or 48 hours, and 40 uL of CellTiter-Glo reagent is added to the wells to assess cell viability.

B16 melanocytes = conditions: expected result
Description: Plating media will include DMEM without L-glutamine, FBS, penicillin/streptomycin, and L-glutamine. Assay media will include DMEM without phenol red and L-glutamine, FBS, penicillin/streptomycin, L-glutamine, and aMSH. Other reagents will include Kojic Acid, DMSO, and MTT. Cells tested will be B16 cells (ATCC CRL-6475).
B16 Melanocytes are cultured until 70% confluent and harvested. Cells are seeded in 96-well plates at a density of 4000 cells/well and are allowed to attach overnight. The following day, test articles and controls are diluted in B16 Assay media. Overnight media is aspirated and 200 ul of test articles and controls are applied. Cells are incubated at 37° C. and 10% CO2 for 72 hours. Following 72-hour incubation, absorbance is read at 540 nm. Media is removed and replaced with 100 ul of plating media containing 1 mg/mL MTT and incubated for 2 hours at 37° C. and 10% CO2. MTT media is removed and replaced with 200 ul of 95% Ethanol/5% Isopropanol and allowed to shake for 15 minutes. MTT absorbance then is read at 570 nm.
B16 Melanocytes are cultured until 70% confluent and harvested. Cells are seeded in 96-well plates at a density of 4000 cells/well and are allowed to attach overnight. The following day, test articles, test compositions, and controls are diluted in B16 Assay media. […] Following 72-hour incubation, absorbance is read at 540 nm. […] MTT absorbance then is read at 570 nm.

[4] = system: arylhydrocarbon receptor (AhR); conditions: cited from earlier work

Chain of arylhydrocarbon receptor (AhR) (Homo sapiens, UniProt P35869) (P35869 11-848): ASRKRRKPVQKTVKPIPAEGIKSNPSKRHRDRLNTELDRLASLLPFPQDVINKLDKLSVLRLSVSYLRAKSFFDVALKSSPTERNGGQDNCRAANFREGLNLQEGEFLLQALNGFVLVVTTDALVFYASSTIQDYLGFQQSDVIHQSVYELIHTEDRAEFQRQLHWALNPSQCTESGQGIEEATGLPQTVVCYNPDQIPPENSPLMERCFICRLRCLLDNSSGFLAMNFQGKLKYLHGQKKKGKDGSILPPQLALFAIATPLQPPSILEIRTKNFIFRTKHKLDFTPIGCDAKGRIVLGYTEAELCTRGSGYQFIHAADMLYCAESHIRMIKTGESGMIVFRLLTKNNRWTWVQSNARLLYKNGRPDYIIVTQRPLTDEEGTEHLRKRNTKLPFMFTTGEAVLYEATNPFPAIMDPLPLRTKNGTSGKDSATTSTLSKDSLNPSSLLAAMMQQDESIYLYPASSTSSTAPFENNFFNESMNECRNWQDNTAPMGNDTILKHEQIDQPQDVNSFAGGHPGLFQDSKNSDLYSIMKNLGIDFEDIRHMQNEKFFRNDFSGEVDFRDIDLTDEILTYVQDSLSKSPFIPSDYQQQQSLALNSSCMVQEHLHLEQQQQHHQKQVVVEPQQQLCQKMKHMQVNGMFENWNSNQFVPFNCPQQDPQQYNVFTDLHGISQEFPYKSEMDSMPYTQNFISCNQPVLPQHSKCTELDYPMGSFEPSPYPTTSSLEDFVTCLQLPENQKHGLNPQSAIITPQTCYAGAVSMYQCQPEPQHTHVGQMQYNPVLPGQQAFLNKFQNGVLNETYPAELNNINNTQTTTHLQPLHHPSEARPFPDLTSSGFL

| Structure (SMILES) | AhR activity modulation [1] | cell death / apoptosis induction [2] | cell death (cell viability) [3] | melanogenesis inhibition (B16 melanocytes) | AhR agonist activity [4] |
| --- | --- | --- | --- | --- | --- |
| O=C1Nc2ccccc2/C1=C1/Nc2ccccc2C1=O [Indirubin] | will modulate AhR activity | will induce cell death | will induce cell death | will inhibit melanogenesis | known agonist |
| O=Cc1c(Cc2c[nH]c3ccccc23)[nH]c2ccccc12 [Malassezin, 2-(1H-indol-3-ylmethyl)-1H-indole-3-carbaldehyde] |  |  |  |  | known agonist |
